The nature of this data set: Solubility determinations of crystalline forms of racemic eperisone in water. In kind it is physicochemical. Conditions: for Solubility: HPLC-grade water, slurry on rotating wheel 46.5 hours at ambient temperature (about 19° C.), filtrate dried and weighed; for Relative solubility among the forms: ranking of the Table 10 solubilities in water. How it is done:
The solubilities of the crystalline forms of racemic eperisone were determined as follows. Each experiment was conducted in a one-dram vial by adding weighed amounts of solid salt in portions to a weighed amount of HPLC-grade water until a slurry was obtained. In the case of the mesylate salt, a slurry was not obtained; solid addition was stopped while a solution was still present. Each vial was capped and placed on a rotating wheel for 46.5 hours at ambient temperature. Each vial was removed from the wheel. The ambient temperature at the time of removal was about 19° C. The contents of each vial were vacuum filtered through Whatman Grade 1 filter paper. Solids adhering to the inside of the vial were not recovered. Each filtrate was weighed, dried under diaphragm pump pressure over phosphorus pentoxide, and the resulting solid residue was weighed. Each filter cake was allowed to dry in the air overnight and was weighed.

These results are taken from patent US20120196895A1, “NOVEL FORMS OF EPERISONE” (Bionevia Pharmaceuticals, Inc., priority 2009, published 2012).

Structures can show the parent of a compound that is named as a salt. Where only a bound is given, the exact number is not on record here.

Regarding `CCc1ccc(C(=O)C(C)CN2CCCCC2)cc1` (racemic) [Hydrochloride, (2RS)-1-(4-ethylphenyl)-2-methyl-3-piperidin-1-yl-propan-1-one, reference compound], the Solubility is recorded as 210.7 mg/mL.

`CCc1ccc(C(=O)C(C)CN2CCCCC2)cc1` (racemic) [Succinate, (2RS)-1-(4-ethylphenyl)-2-methyl-3-piperidin-1-yl-propan-1-one] gave a Solubility of 114.7 mg/mL. `CCc1ccc(C(=O)C(C)CN2CCCCC2)cc1` (racemic) [Maleate, (2RS)-1-(4-ethylphenyl)-2-methyl-3-piperidin-1-yl-propan-1-one] returned a Solubility of 20.7 mg/mL.

In the case of `CCc1ccc(C(=O)C(C)CN2CCCCC2)cc1` (racemic) [Mesylate, (2RS)-1-(4-ethylphenyl)-2-methyl-3-piperidin-1-yl-propan-1-one], the Solubility is reported as above 392.2 mg/mL. For the same compound, for the setting “listed as racemic eperisone mesylate”, the “Relative solubility among the forms” value was “most soluble”.

The compound `CCc1ccc(C(=O)C(C)CN2CCCCC2)cc1` (racemic) [Fumarate, (2RS)-1-(4-ethylphenyl)-2-methyl-3-piperidin-1-yl-propan-1-one] showed a Solubility of 16.8 mg/mL. For the same compound, the “Relative solubility among the forms” value (listed as racemic eperisone fumarate) is recorded as “least soluble”.
